# System: COS-7 cells
# Experiment: Automated lipofection screening: GFP-luciferase reporter gene transfer (luciferase activity per protein content)
# Type: cell-based, African green monkey
# Conditions: for Maximum transfection efficiency, MW (mean value), Helper lipid: DOPE / Maximum transfection efficiency, MW (mean value), Helper lipid: CHOL / Maximum transfection efficiency, MW (mean value), Helper lipid: without: pEGFPLuc plasmid, point is thousands separator; for Maximum transfection efficiency, MW (mean value), Helper lipid: DOPE: cationic/helper lipid 1:0.5 with DOPE; for Maximum transfection efficiency, MW (mean value), Helper lipid: DOPE / Maximum transfection efficiency, MW (mean value), Helper lipid: CHOL: at the LDR giving the maximum; for Maximum transfection efficiency, MW (mean value), Helper lipid: CHOL: cationic/helper lipid 1:0.5 with cholesterol; for Maximum transfection efficiency, MW (mean value), Helper lipid: without: no helper lipid, at the LDR (1:1-15:1) giving the maximum
# Protocol: Screening the combinatorial lipid library for lipofection properties: Goal of this first step was to compare transfection efficiency of these structurally related cationic lipids with systematically modified hydrocarbon chain compositions for the development of suitable lipofection reagents and protocols and to study the relationship between structure and transfection efficiency of this new class of cationic lipids for gene transfer. All lipids (MS-1 to MS-50, table 1) were tested using a standard protocol: From each lipid, twenty four different lipoplexes were formed containing either no helper lipid or the helper lipids DOPE and CHOL at molar amounts (1:0.5), respectively, using eight different lipid:DNA-charge ratios (LDR) from 1:1 - 15:1, resulting in a lipofection profile for each lipid. The COS-7 cell-line was used for this lipofection study since COS-7 is easy to transfect and differences between the lipids are easy to identify.
# Cell culture: SV40 transformed African green monkey kidney cell line COS-7 (ATCC CRL-1651) was routinely passaged in DMEM (GIBCO BRL, Karlsruhe, Germany), respectively, supplemented with 1% L-glutamin solution (100x), 1% Penicillin/Streptomycin solution (100x) (GIBCO BRL, Karlsruhe, Germany), and 10% FCS (BioWhittaker, Verviers, Belgium) at 37°C with 5% CO2 in humidified atmosphere. For the screening cells were maintained in 96-well culture plates (Greiner, Frickenhausen, Germany) in 100 µl DMEM, 10 % FCS, 1 % Penicillin-streptomycin in a humidified atmosphere at 37 °C/5 % CO2. 24 h prior to transfection, the cells were seeded into the microtiter plate at 10,000 cells per well to reach a confluency of 50 % at the time of transfection. Dendritic cells: Dendritic cells (DC) were derived from highly purified circulating CD14(+) monocytes: In a first step, peripheral blood mononuclear leukocytes (PBL) from healthy control persons were isolated by Ficoll-Paque (Pharmacia Biotech AB, Uppsala, Sweden) density centrifugation. The following immunomagnetic purification of the monocytes from PBL was performed using CD14 Microbeads and MiniMACS high gradient magnetic separation columns (Miltenyi Biotech, Bergisch Gladbach, Germany) according to manufacturer's instructions. Isolated monocytes (5 x 10^5/well) were cultured in RPMI supplemented with 10 % FCS, or serum-free Macrophage-SFM medium (GIBCO BRL, Karlsruhe, Germany) supplemented with human recombinant GM-CSF (0.05µg/ml) and IL-4 (0.025µg/ml) (PromoCell, Heidelberg, Germany) in 6-well plates. Aliquots of the cells were reanalyzed by FACS with anti-CD14 mAbs (Pharmingen, San Diego, CA). After 5-6 days non-adherent cells were collected and purity of DCs was determined by FACS analysis using a FACSort flow cytometer (Becton Dickinson, Mountain View, CA) and the CellQuest software for data processing as recently described (Jantscheff, P. et al., J. Immunol. Methods 163(1):91-7 (1993)).
SMILES,"Maximum transfection efficiency, MW (mean value), Helper lipid: DOPE [RLU]","Maximum transfection efficiency, MW (mean value), Helper lipid: CHOL [RLU]","Maximum transfection efficiency, MW (mean value), Helper lipid: without [RLU]",times higher activity in only one of the helper lipid combinations (best combination against the other combinations)
CCCCCCCCCCCCCCCCCCN(CCCCCCCCCCCCCCCCCC)[C@@H](CO)C(=O)NCCN [compound 4],4.695,131.981,2.827,–
CCCCCCCCCCCCCCCCCC[N+](C)(CCCCCCCCCCCCCCCCCC)[C@@H](CO)C(=O)NCCN [compound 29],24.095,137.404,43.875,–
CCCCCCCCCCCCCCCCCCN(CCCCCCCCCCCCCCCCCC)[C@@H](CO)C(=O)NCCCCCN [compound 19],11.743,45.026,1.118,–
CCCCCCCCCCCCCCCC[N+](C)(CCCCCCCCCCCCCCCC)[C@@H](CO)C(=O)NCCN [compound 28],190.444,461.747,171.272,–
CCCCCCCCCCCCCCCCCCN(CCCCCCCCCCCCCCCCCC)[C@@H](CO)C(=O)NCCCN [compound 9],10.033,76.850,2.183,–
CCCCCCCCCCCCCCCC[N+](C)(CCCCCCCCCCCCCCCC)[C@@H](CO)C(=O)NCCCCCN [compound 43],169.621,222.652,6.944,–
CCCCCCCC/C=C\CCCCCCCC[N+](C)(CCCCCCCC/C=C\CCCCCCCC)[C@@H](CO)C(=O)NCCCN [compound 35],43.284,56.949,34.736,–
CCCCCCCCCCCCCCN(CCCCCCCCCCCCCC)[C@@H](CO)C(=O)NCCCN [compound 7],131.970,464.342,217.062,–
CCCCCCCCCCCCCCCC[N+](C)(CCCCCCCCCCCCCCCC)[C@@H](CO)C(=O)NCCCN [MS-33],–,–,–,2.5 - 11.5 times
CCCCCCCCCCCCCCCCN(CCCCCCCCCCCCCCCC)[C@@H](CO)C(=O)NCCCCCCN [compound 23],27.118,16.398,14.969,–
CCCCCCCCCCCC[N+](C)(CCCCCCCCCCCC)[C@@H](CO)C(=O)NCCCCN [compound 36],26.495,3.829,2.064,–
CCCCCCCCCCCCCC[N+](C)(CCCCCCCCCCCCCC)[C@@H](CO)C(=O)NCCCCN [compound 37],63.765,148.560,1.972,–
CCCCCCCC/C=C\CCCCCCCCN(CCCCCCCC/C=C\CCCCCCCC)[C@@H](CO)C(=O)NCCCCCN [compound 20],26.482,67.308,31.897,–
CCCCCCCCCCCCN(CCCCCCCCCCCC)[C@@H](CO)C(=O)NCCCCN [compound 11],2.621,327,293,–

# Source: patent publication EP1457483A1, “Cationic lipids with serine backbone” (Ruhr-Universität Bochum, priority 2003, dated 2004)
